Several values for one entry are separate records, joined by “and”; a condition that tells them apart may be missing. Equal values may be shown once.
How the values were obtained:
[1] = test system: patients with pulmonary arterial hypertension; assay: Inhaled nitric oxide vasodilator challenge during right heart catheterization, retrospective review of prostacyclin wean/transition cases; assay type: in vivo, human
Source text: Inhaled nitric oxide (NO) can be administered during right heart catheterization (RHC) to evaluate and characterize pulmonary hemodynamics following long term parenteral prostacyclin therapy and can provide information that may influence the choice of treatment strategies for these patients. These treatment strategies may involve changing vasodilator therapy, eligibility for lung and/or heart transplantation, or changes in prognosis. Inhaled nitric oxide can be a potent, selective pulmonary vasodilator agent and has been well studied up to 80 ppm. It is expected that inhaled nitric oxide as a diagnostic agent during RHC may be useful for facilitating patient management strategies and provide clinical information beneficial to patient care.
An aim of the project was to collect and review the existing data from centers experienced with the practice of transition from parenteral prostacyclins to an alternative therapy. The review was conducted to determine if a population could be characterized based on the hemodynamic response using inhaled nitric oxide during right heart catheterization. A primary objective of the project was to determine the correlation, if any, between the return of pulmonary vascular reactivity following parenteral prostacyclin therapy and the ability of the patient to transition from parenteral prostacyclins to an alternative therapy. Secondary objectives included the exploration of clinical characteristics of a patient population with a documented wean or transition from parenteral prostacyclins, as well as evaluating any change in clinical impression.
To date seven sites have contributed to the data set collected for a total of 47 baseline visits, and 246 follow-up visits. There are five failed weans and seven late failures. Data was available to review for 40 cases entered. No statistical analysis was performed and reviews completed were descriptive in order to identify any shared characteristics in the population either as a success, failure or late failure.
Three cases, where nitric oxide re-challenge data was available at the time of subject wean, are represented in Table 2.
The lack of correlation between the clinical findings and the ECHO data prompted review of the data. Baseline hemodynamics, wean hemodynamics and echocardiography data were reviewed for all the failed transitions. […] In each case, where echocardiography data was available and right ventricular enlargement was indicated and/or right ventricular dysfunction was indicated, a failed wean or late failure was common.

[2] = test system: patients with pulmonary arterial hypertension; conditions: epoprostenol therapy, 27 consecutive patients; cited from earlier work
[3] = test system: patients with pulmonary arterial hypertension; conditions: active group (n=41), 12 weeks; cited from earlier work
[4] = failed wean/late failure cases, Time of Wean

Structure (SMILES)	acute vasodilator response (fall in PAPm of >10 mm Hg to <40 mm Hg) ([1]; all three cases of Table 2)	change in PAPm ([1]; all three cases of Table 2, nitric oxide challenge at time of wean)	NO CO ([1]; cardiac output on nitric oxide challenge at time of wean, one patient case per table row)	change in CO ([1]; case of the failed transition)	change in PVR ([1]; case of the failed transition)	WN NO CO [1, 4]	WN NO PAPm [1, 4]	WN NO PVR [1, 4]	NO PAPm ([1]; mean pulmonary arterial pressure on nitric oxide challenge at time of wean, one patient case per table row)	NO PVR ([1]; pulmonary vascular resistance on nitric oxide challenge at time of wean, one patient case per table row)	cardiac output increased [2]	mean pulmonary artery pressure declined [2]	pulmonary vascular resistance declined [2]	average decline in mean pulmonary arterial pressure [3]	decline in pulmonary vascular resistance [3]
[N]=O [NO, nitric oxide]	failed to meet the criteria	only a modest decrease	5.2 and 7.8 and 4.77	marked increase	minimal decrease	5.2	49	8.3	49 and 48 and 70	8.3 and 3.8 and 14.4	–	–	–	–	–
CCCCC[C@H](O)/C=C/[C@@H]1[C@H]2C/C(=C/CCCC(=O)O)O[C@H]2C[C@H]1O [epoprostenol]	–	–	–	–	–	–	–	–	–	–	67%	22%	53%	8%	21%
